Reference: patent US20110053859A1, “METHODS TO REDUCE THE EFFECTS OF SLEEP DEPRIVATION” (The U. S. Government Respresented by the Department of …, priority 2007, published 2011)
Entries after “also recorded” stand apart in the source; their conditions may differ.

Legend:
[1] = test system: alert non sleep deprived monkeys; experiment: Multi-image delayed match to sample (DMS) task in alert non-sleep-deprived monkeys; type: in vivo, rhesus monkeys (Macaca mulatta); conditions: for DMS performance vs saline control: IV 10.0 μg/kg, all 8 monkeys
Description: (§1) Subjects: All procedures were reviewed and approved by the Institutional Animal Care and Use Committee of Wake Forest University, and performed in accordance with established practices as described in the National Institutes of Health Guide for Care and Use of Laboratory Animals. Eight adult male rhesus monkeys (Macaca mulatta) weighing (8.0-11.0 kg) were utilized in this study. They were individually housed in stainless steel cages in temperature and humidity controlled colony rooms with lighting maintained on a 0600:1800 on:off schedule and fed a diet of monkey chow supplemented by fresh fruit to maintain daily monitored body weight. Fluid intake was restricted in time and amount such that a prescribed volume of an animal's normal daily fluid intake (80 ml/kg) was received either during the behavioral testing session, or within 2 hours of being returned to the home cage.
(§2) Behavioral Testing: Each monkey was exposed to 6 different testing conditions (Normal Vehicle, Alert orexin-A (IV and nasal), Sleep Deprivation, Sleep Deprivation+orexin-A (IV or nasal) which required 11-14 test sessions for each of the 8 monkeys. Animals were placed in a primate chair 1.5 meters in front of an LCD-front-projection screen for daily testing on a multi-image visual delayed match to sample (DMS) task (Porrino 2005) and performed 150-300 trials per session. Animals were trained to move a cursor tracked by a fluorescent marker attached to the back of the monkey's hand into the images by positioning the hand within a two dimensional coordinate system on the chair counter. Stimuli consisted of clip art images projected as 25 cm squares within a 3×3 position matrix onto a 1.0 meter×1.0 meter display. Responses to appropriate stimuli were rewarded with diluted fruit juice delivered via a sipper tube placed in front of the mouth. All animals were trained to a stable baseline on the DMS task in which delay varied randomly from (range 1-60 sec to 1-90 sec across animals) on a given trial, and the number of non-match stimuli (images) varied randomly from 2 to 8 in the Match phase of the task (Porrino 2005). As shown previously performance accuracy varied directly with duration of delay and number of nonmatch images (#images) presented in the Match phase (Hampson 2004, Porrino 2005). Each stimulus image (sample or nonmatch) was used on only one trial during a daily session and the sets of images were routinely changed every two weeks to maintain the trial unique feature of each session. Performance was monitored daily on the DMS task and there was no testing on weekends.
Drug Administration: orexin-A (hypocretin-1) was mixed in saline for IV injections and in sterile water for nasal application. […]

drowsy monkeys = experiment: DMS task in drowsy monkeys tested at the end of their normal day (4 PM); type: in vivo; conditions: for DMS performance at normal testing time: normal testing conditions (alert), nasal; for DMS performance impairment (high load and extended delay trials) in drowsy condition: tested at 4 PM, nasal spray 1.0 μg
Method: Monkeys were tested at the end of their normal day 12 hr day at 4 PM, approximately 6-8 hours later than their normal testing period, in what can be considered a “drowsy” condition just prior to the onset of their dark cycle at 6 PM (Price 2003, Thomas 2000). At this time animals were impaired in performance relative to their normal testing times (high cognitive load: F(1.72)=8.49. p<0.001; extended delays-very high cognitive load: F(1.72)=5.84, p<0.01) during the day. […] F refers to an analysis of variance and the numbers in parentheses are the degrees of freedom, essentially the number of subjects and conditions (−1). The F value is the an indication of the effect size as measured by the analysis of variance, which is translated into a probability (p) value. This is a standard test for significance. […] Performance was decreased in animals administered nasal sprays of saline at this time of testing. Nasal orexin-A administered at 4 PM improved performance back to normal levels.

[2] = test system: sleep deprived (30-36 hrs) rhesus monkeys; experiment: Multi-image DMS task after 30-36 hrs of sleep deprivation; type: in vivo, rhesus monkeys (Macaca mulatta)
Description: as §1, §2
Sleep Deprivation Procedure: Sleep deprivation consisted of 30-36 hours of continuous sleep prevention supervised by laboratory personnel as previously verified using EEG recordings and sleep architecture to be a valid method of depriving animals of slow wave and REM sleep (Porrino 2005). Animals were maintained in a cage separate from their home cage in a continuously lighted room and kept awake with videos, music, occasional treats, gentle cage shaking, and interaction with technicians until their usual daily testing time. Animals were allowed 10 days between sleep deprivation episodes and were allowed to sleep after testing on each day following the 30-36 hr sleep deprivation episode. There were no residual effects of sleep deprivation on testing 24 hrs after the sleep deprivation procedure and animals returned to there normal sleep patterns on the next night following the sleep deprivation procedure.
Drug Administration: orexin-A (hypocretin-1) was mixed in saline for IV injections and in sterile water for nasal application. For IV administration orexin-A, (#003-30, Phoenix Pharmaceuticals, Mountain View, Calif.) was dissolved in physiological saline as a stock solution of 200 μg/ml which was then diluted in saline to inject 3 different doses of 2.5, 5.0 and 10.0 μg/kg via an indwelling catheter placed in either the femoral or jugular vein using a glass syringe. […]

sleep deprived monkeys = experiment: PET (FDG) local cerebral glucose metabolism (CMRglc) during DMS task in sleep deprived monkeys; type: in vivo, rhesus monkeys (Macaca mulatta)
Description: Measurement of Local Rates of Cerebral Glucose Metabolism: Measurement of rates of cerebral glucose metabolism (CMRglc) were made in 8 monkeys in four different conditions: normal alert DMS task vehicle; DMS task-Sleep Deprivation vehicle; DMS task-Sleep Deprivation+orexin A (IV or nasal). All animals (n=8) were acclimated to the PET scan sessions to the extent that performance was not influenced by the injection or blood collection procedures. On the day of the scan the monkeys were placed in primate chairs and received a 30 sec injection of 3-5 mCi of [^18]-2-deoxy-2-fluoro-D-glucose (FDG). The DMS task was initiated 5-10 min later and was performed for a total of 40 minutes (80-100) trials while the FDG was incorporated and taken up by cells during performance in the DMS task. After 40 min animals were then anesthetized with ketamine (15 mg/kg, iv) and transported to the PET scanner. Following scan acquisition, monkeys were transported back to their home cages and continuously monitored until fully recovered. Effects of anesthesia and other factors associated with the PET scanning procedures were previously assessed and shown to not influence measures of isotope uptake.
To calculate glucose uptake tracer concentrations were measured in blood samples using an automated gamma well counter from three blood samples collected from the femoral vein at 10 minutes prior to tracer injection and 8 and 42 minutes post-injection. A population-averaged FDG blood curve (calculated for monkey) was scaled to the measured blood curve for the time period from injection to the end of the PET scan (Sokoloff 1977). Data were transformed to CMRglc based on the operational equation (Phelps 1979, Kennedy 1978). Rate constants (k1, k2, and k3) and lumped constant as determined in monkey by Kennedy et. al. 1978, along with a k4 value used in human studies (Phelps 1979). PET scans were performed with a General Electric (GE) Advance NXi PET scanner with a resolution of 4 mm and consisted of a five minute transmission scan acquired in 2D mode, followed by a ten minute emission scan acquired in 3D mode. The image reconstruction of the 3D data used the 3D-reprojection method with full quantitative corrections and smoothed using a 4 mm Gaussian filter transaxially and then segmented. Data were corrected for attenuation and reconstructed into 128 by 128 matrices using a Hanning filter with a 4mm cutoff transaxially and a ramp filter with an 8.5 mm cutoff axially.
PET data were analyzed with Statistical Parametric Mapping (SPM99) software (http://www.fil.ion.ucl.ac.uk/spm/) implemented in MATLAB (MathWorks, Natick, Mass.). Reconstructed images for each scan from each of the 8 monkeys were co-registered to corresponding structural MR images obtained on a 1.5-T MR scanner (GE Medical Systems, Milwaukee, Wis.) using automated image registration (Black 2001) and then transformed spatially into a standard space with an FDG template for rhesus monkeys constructed in our laboratory based on procedures of Black and colleagues (Paxinos 2003). Resultant images were smoothed using a 2 mm isotropic Gaussian kernel with a voxel size of 1×1×1 mm. Scans were normalized for differences in global activity by proportional scaling. Effects at each voxel were estimated according to the general linear model using the multi-subject conditions and covariates option in SPM. Statistical maps were created for comparisons of the […] different experimental conditions: Normal Alert Vehicle vs. Normal Alert orexin-A (IV or nasal); Sleep Deprivation vs. Normal Alert Vehicle; Sleep Deprivation vs. Sleep Deprivation+orexin-A (IV or nasal) and Sleep Deprivation+orexin-A IV vs. Sleep Deprivation+orexin-A nasal. Exploratory analyses used a minimum voxel height (magnitude) threshold of p<0.01 and a minimum cluster size of 50 voxels. […]

[3] = nasal vs IV in the same monkeys

orexin-A: 33 residue neuropeptide hypocretin-1, residues 34-66 of human prepro-orexin; bought from Phoenix Pharmaceuticals (#003-30) (QPLPDCCRQKTCSCRLYELLHGAGNHAAGILTL; Orexin-A; UniProt O43612 34-66, looked up)
DMS performance vs saline control [1]: slight but significant performance impairment | DMS performance vs saline control ([1]; listed as Orexin-A): significant reduction | DMS performance, dose relation ([1]; IV 2.5, 5.0 and 10.0 μg/kg): dose-related trend toward reduced performance | DMS performance in normal alert sessions ([1]; nasal spray 1.0 μg): little or no effect on DMS performance; also recorded: no significant effects | DMS performance at normal testing time (drowsy monkeys): no effect on performance | DMS performance at normal testing time (drowsy monkeys; listed as hyocretin): no effect on cognitive performance | DMS performance impairment (high load and extended delay trials) in drowsy condition (drowsy monkeys): reversed completely | DMS performance impairment (high load and extended delay trials) in drowsy condition (drowsy monkeys; listed as hyocretin): reverses cognitive deficits | Monkeys that failed to show significant improvement on high load trials ([2]; IV 10.0 μg/kg): one of 8 | DMS performance on high cognitive load trials vs sleep deprived sessions ([2]; IV 5.0 and 10.0 μg/kg): significantly improved relative to sleep deprived sessions | DMS performance on low cognitive load trials vs alert condition ([2]; IV 5.0 and 10.0 μg/kg): performed with the same efficiency as in the alert condition | DMS performance vs alert non-sleep deprived levels ([2]; IV 5.0 and 10.0 μg/kg): neither dose restored performance to alert non-sleep deprived levels | DMS performance vs sleep deprived saline sessions ([2]; IV 5.0 and 10.0 μg/kg): systematically increased performance; also recorded: partially reversed the detrimental effects on performance | DMS performance on low cognitive load trials, nasal vs IV ([2]; nasal 1.0 μg vs IV 10.0 μg/kg): no difference between IV and nasal orexin-A | DMS performance overall and on high cognitive load trials, nasal vs IV ([2]; nasal 1.0 μg vs IV 10.0 μg/kg): significantly more effective | Overall DMS performance vs sleep deprivation saline ([2]; nasal 1.0 μg, overall, low and high load trials): reversed the detrimental effects of 30-36 hr sleep deprivation | DMS performance on high cognitive load trials ([2]; nasal spray 1.0 μg): elevated performance above normal alert levels | DMS performance on low cognitive load trials ([2]; nasal spray 1.0 μg): returning performance to normal alert levels | DMS performance on extended delay trials ([2]; nasal spray 1.0 μg, extended delays (90-120 sec)): significantly above extended delay trials in both control sleep deprived and normal alert sessions; also recorded: significantly improved | Local CMRglc in DPFC vs sleep deprivation vehicle (sleep deprived monkeys; IV 10.0 μg/kg): significant increases | Local CMRglc in DStr vs sleep deprivation vehicle (sleep deprived monkeys; IV 10.0 μg/kg): significant increases | Local CMRglc in MTL vs sleep deprivation vehicle (sleep deprived monkeys; IV 10.0 μg/kg): significant decrease | Local CMRglc in Thal vs sleep deprivation vehicle (sleep deprived monkeys; IV 10.0 μg/kg): significant increases | Local CMRglc in DPFC vs sleep deprivation vehicle (sleep deprived monkeys; nasal spray mist 1.0 μg): significantly elevated bilaterally | Local CMRglc in MTL vs sleep deprivation vehicle (sleep deprived monkeys; nasal spray mist 1.0 μg): significant decreases | Change of CMRglc in DPFC, nasal vs IV (sleep deprived monkeys; [3]): greater increases in CMRglc bilaterally | Change of CMRglc in DStr, nasal vs IV (sleep deprived monkeys; [3]): greater increases in CMRglc bilaterally | Change of CMRglc in MTL, nasal vs IV (sleep deprived monkeys; [3]): decreased CMRglc | Change of CMRglc in Thal, nasal vs IV (sleep deprived monkeys; [3]): greater increases in CMRglc bilaterally
